Experimental data published in patent publication US6828334B2, “Fenofibrate-cyclodextrin inclusion complexes and their pharmaceutical composition” (USV Limited, priority 2002, dated 2004).

Assay: in-vitro dissolution, rotating blade method at 75 rpm according to USP24
Assay type: physicochemical

% release of fenofibrate (water with 0.025 M sodium lauryl sulfate, 1200 ml, 5 min): 8-10%
% release of fenofibrate (water with 0.025 M sodium lauryl sulfate, 1200 ml, 10 min): 16-22%
% release of fenofibrate (water with 0.025 M sodium lauryl sulfate, 1200 ml, 20 min): 24-30%
% release of fenofibrate (water with 2% by weight polysorbate-80, 1200 ml, 5 min): 4-8%
% release of fenofibrate (water with 2% by weight polysorbate-80, 1200 ml, 10 min): 19-22%
% release of fenofibrate (water with 2% by weight polysorbate-80, 1200 ml, 20 min): 30-32%
% release of fenofibrate (water with 2% by weight polysorbate-80, 1200 ml, 30 min): 36-38%
Compound: CC(C)OC(=O)C(C)(C)Oc1ccc(C(=O)c2ccc(Cl)cc2)cc1 [fenofibrate, 2-[4-(4-chlorobenzoyl)phenoxy]-2-methyl propionate]
